Biological target: N. europaea cyt P460 (Nitrosomonas europaea, UniProt Q50927)
Assay: biochemical

Sequence of N. europaea cyt P460 (Q50927 27-198): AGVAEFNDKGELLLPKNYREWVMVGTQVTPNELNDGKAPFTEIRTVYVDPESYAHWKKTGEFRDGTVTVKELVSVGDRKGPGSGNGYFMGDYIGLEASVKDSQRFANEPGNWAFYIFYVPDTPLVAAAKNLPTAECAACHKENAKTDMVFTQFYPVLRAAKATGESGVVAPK

## NO [hydroxylamine]
  Kd: 9 ± 1 mM

Reference: paper PMC6457333 (Chemical Science, 2019)
